Residues, ends and D or L forms follow the SMILES beside them. No end group written: not given here.
How the values were obtained:
IA^k = biological target: T1, IA^k (Mus musculus, UniProt P01910+P06343); assay: MHC class II-binding assay, IA^k; parameters: species or system A/J mice; conditions: for IC50: competition with biotinylated HEL 46–61 (1 µM), empty IA^k monomers 0.35 µg, competitor 0.00001–100 µM, pH 7.0, overnight, RT, DELFIA europium fluorescence 340/615 nm, mean ± SEM, three experiments with two replicates each
T1 construct: soluble IA^k and IE^k monomers were expressed; class II-associated invariant-chain peptide (CLIP) 88–102 (VSQMRMATPLLMRPM) with thrombin cleavage site (cleaved yes); made in house; host or cells: baculovirus expression (sf9 cells are named only for the IA^k dextramer constructs)
T1 sequence (P01910 24-218 limits assumed): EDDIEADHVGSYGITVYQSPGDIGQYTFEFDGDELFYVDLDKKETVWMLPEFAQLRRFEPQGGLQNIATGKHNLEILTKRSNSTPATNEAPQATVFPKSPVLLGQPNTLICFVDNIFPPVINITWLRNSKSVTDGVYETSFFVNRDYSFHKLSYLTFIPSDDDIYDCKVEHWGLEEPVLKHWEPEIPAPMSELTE
T1 sequence (P06343 28-224 limits assumed): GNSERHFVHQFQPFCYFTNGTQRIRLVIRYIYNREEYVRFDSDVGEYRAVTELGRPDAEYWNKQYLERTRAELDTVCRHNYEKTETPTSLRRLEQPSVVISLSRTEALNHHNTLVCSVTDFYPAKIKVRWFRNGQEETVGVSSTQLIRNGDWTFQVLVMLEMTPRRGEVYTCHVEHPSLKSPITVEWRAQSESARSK
Protocol: A/J mice express two MHC class II alleles, IA^k and IE^k ([33], [34]), and to determine the affinities of β1AR peptides, soluble IA^k and IE^k monomers were expressed ([34], [35]). In brief, the β-chain in each of IA^k and IE^k constructs contain sequence for class II-associated invariant-chain peptide 88–102 (VSQMRMATPLLMRPM) linked with thrombin cleavage site ([34], [35]). After expressing in the baculovirus, soluble IA^k and IE^k monomers were treated with thrombin (20 U/mg; Novagen, Madison, WI, USA) to release class II-associated invariant-chain peptide leading us to obtain empty IA^k and IE^k molecules. Reaction mixtures were prepared to include empty IA^k or IE^k monomers (0.35 µg), competitor peptides (β1ARAc 171–190, β1ARAc 181–200, β1ARAc 201–220, and β1ARAc 211–230) (0.00001–100 µM), and constant amounts of the biotinylated reference peptides HEL 46–61 (for IA^k) or MCC 82–103 (for IE^k) (1 µM) in a buffer containing 50 mM sodium phosphate pH 7.0, 100 mM sodium chloride, 1 mM EDTA, and 1 × protease inhibitor (Sigma-Aldrich, St. Louis, MO, USA) ([36]–[38]). After incubating overnight at RT, the mixtures were transferred to 96-well white fluorescence plates coated with anti-IA^k (clone 10-2.16, BioXcell, West Lebanon, NH, USA), and anti-IE^k (clone M5/114, BioXcell) Abs (10 µg/ml) in 0.2 M sodium phosphate buffer, pH 6.8, blocked with 2% bovine casein; and the plates were incubated on a rocker at RT for 1 h. Finally, after adding 100 µl of europium-labeled streptavidin (0.1 µg/ml) and dissociation-enhanced lanthanide fluoroimmunoassay (DELFIA) enhancement solution (Perkin Elmer) sequentially, fluorescence intensities were measured at excitation/emission wavelengths of 340/615 nm using a Victor Multilabel Plate Reader (Perkin Elmer). The IC50 values were determined based on the concentrations of competitor peptides needed to prevent 50% binding of the reference peptides as we have described previously ([26], [28], [30]).

[1] = tested on: non-cardiac tissues (brain, lung, liver, kidney); conditions: mouse, in vivo
CD4 and CD8 T cells = conditions: cited from earlier work
Text: Expectedly, sections from control groups were negative for all the markers tested except rare CD11b^+ cells.

[2] = tested on: T cells (lymph node cells/splenocytes from immunized animals); assay: T cell proliferation assay ([3H]-thymidine); type: cell-based, A/J mice; conditions: proliferation, 0–100 µg/ml, 2 days + 16 h [3H]-thymidine; cpm
Protocol: At termination, lymph nodes (maxillary, mandibular, axillary, inguinal, and popliteal) and spleens were harvested from immunized animals to prepare single cell suspensions. Similarly, splenocytes were prepared from naive animals. After lysing the erythrocytes and washing, cell pellets were suspended in RPMI medium containing 10% fetal bovine serum, 1 mM sodium pyruvate, 4 mM L-glutamine, 1 × each of non-essential amino acids and vitamin mixture, and 100 U/ml penicillin–streptomycin (Lonza, Walkersville, MD, USA; hereafter called growth medium). In some experiments, CD4 T cells and CD8 T cells were enriched to a purity of ~95% by negative selection based on magnetic separation using IMAG (BD Biosciences, San Jose, CA, USA) ([31]). To stimulate CD4 and CD8 T cells, syngeneic naive irradiated splenocytes loaded with peptides were used as antigen-presenting cells at a ratio of 1:1. Cells were stimulated at a density of ~5 × 10^6 cells/ml in triplicates with or without the immunizing peptides (0–100 µg/ml) in growth medium. RNase 43–56 or HEL 46–61 were used as irrelevant controls. After 2 days, cells were pulsed with tritiated ^3[H]-thymidine (1 μCi/well; MP Biomedicals, Santa Ana, CA, USA), and 16 h later, proliferative responses were measured as counts per minute (cpm) using a Wallac liquid scintillation counter (Perkin Elmer, Waltham, MA, USA) ([26], [28], [30]).

[3] = tested on: serum antibodies (Igs and isotypes) of immunized mice; assay: ELISA, antibodies that react with β1ARAc peptides; type: in vivo, A/J mice; conditions: serum 1:100, day 21, OD 405 nm; for Antibody response, total Igs (in words): five animals per group
Protocol: ELISA was used to measure antibodies that react with β1ARAc peptides in the serum samples collected from immunized animals at termination on day 21 as described previously ([26]). […] After washing/blocking, serum samples (1:100) were added in duplicates, and the plates were incubated at 37°C for 1 h followed by addition of HRP-labeled goat anti-mouse immunoglobulins (Igs), IgG1, IgG2a, IgG2b, IgG3, IgM, IgA, and IgE (Southern Biotech, Birmingham, AL, USA) as secondary antibodies. Two hours after incubation at RT, 1 × tetramethylbenzidine solution was added as a substrate (eBioscience), and reactions were stopped using 1 M phosphoric acid. The plates were read at 405 nm using an automated ELISA reader (BioTek instruments, Winooski, VT, USA) to measure OD values ([26], [46]).

A/J mice (hearts) = assay: Induction of myocarditis by active immunization with peptides (histology); type: in vivo
[4] = acetylated peptides in CFA/PT (100 µg individually, 50 µg each when pooled), days 0 and 7, day 21

Compound | IC50 (IA^k) | Brain, incidence (animals affected/total) [1] | Brain, incidence of inflammation [1] | Brain, inflammatory foci [1] | Kidney, incidence (animals affected/total) [1] | Kidney, incidence of inflammation [1] | Kidney, inflammatory foci [1] | Liver, incidence (animals affected/total) [1] | Liver, incidence of inflammation [1] | Liver, inflammatory foci [1] | Lung, incidence (animals affected/total) [1] | Lung, incidence of inflammation [1] | Lung, inflammatory foci [1] | Common epitope for CD4 and CD8 T cells (in words) (CD4 and CD8 T cells) | other results
CC[C@H](C)[C@H](NC(=O)[C@H](C)NC(=O)[C@H](Cc1ccc(O)cc1)NC(=O)[C@H](C)NC(=O)[C@H](CCCNC(=N)N)NC(=O)[C@H](CC(N)=O)NC(=O)[C@@H](NC(=O)[C@@H](NC(=O)[C@H](Cc1ccccc1)NC(=O)[C@H](CC(=O)O)NC(=O)[C@H](CS)NC(=O)[C@H](CS)NC(=O)[C@H](CCCCN)NC(=O)[C@@H]1CCCN1C(=O)[C@H](CC(=O)O)NC(=O)[C@H](CC(N)=O)NC(C)=O)C(C)C)[C@@H](C)O)C(=O)N[C@@H](C)C(=O)N[C@@H](CO)C(=O)N[C@@H](CO)C(=O)N[C@H](C(=O)O)C(C)C [β1ARAc 211–230] (Ac-NDPKCCDFVTNRAYAIASSV-OH) | 18.6 ± 1.23 µM | 0/5 | 0% | 0 | 0/6 | 0% | 0 | 6/6 | 100% | 20.33 ± 4.83 | 5/6 | 83% | 2.50 ± 1.34 |  | 
Ac-TRARARALVCTVWAISALVS [β1ARAc 171–190] | 26.1 ± 12.4 µM | 0/6 | 0% | 0 | 0/6 | 0% | 0 | 6/6 | 100% | 29.17 ± 6.83 | 6/6 | 100% | 4.33 ± 0 .21 |  | 
Ac-TVWAISALVSFLPILMHWWR [β1ARAc 181–200] | 97.1 ± 2.07 µM | 0/6 | 0% | 0 | 0/6 | 0% | 0 | 6/6 | 100% | 44.50 ± 11.66 | 6/6 | 100% | 3.17 ± 0.60 |  | 
Myhc 334–352: cardiac myosin heavy chain-α 334–352 (DSAFDVLSFTAEEKAGVYK; UniProt Q02566 334-352, looked up, fragment) |  |  |  |  |  |  |  |  |  |  |  |  |  | common epitopes for both CD4 and CD8 T cells | 
interphotoreceptor retinoid-binding protein 1–20: CD4 and CD8 common epitope (GPTHLFQPSLVLDMAKVLLD; UniProt P10745 18-37, looked up, fragment) |  |  |  |  |  |  |  |  |  |  |  |  |  | common epitopes for both CD4 and CD8 T cells | 
myelin oligodendrocyte glycoprotein 35–55: CD4 and CD8 common epitope (MEVGWYRSPFSRVVHLYRNGK; UniProt Q61885 63-83, looked up, fragment) |  |  |  |  |  |  |  |  |  |  |  |  |  | common epitopes for both CD4 and CD8 T cells | 
β1ARAc 191–210: N-terminal acetylated mouse β1-adrenergic receptor peptide 191–210 (Ac-FLPILMHWWRAESDEARRCY; UniProt P34971 191-210, looked up, fragment) |  |  |  |  |  |  |  |  |  |  |  |  |  |  | T cell responses (in words) [2]: non-T cell activators; Antibody response, total Igs (in words) [3]: to some degree; Myocarditis incidence (A/J mice (hearts); [4]): 0%; Myocarditis incidence (animals with disease/total) (A/J mice (hearts); [4]): 0/5; Inflammatory foci (A/J mice (hearts); acetylated peptides in CFA/PT, mean ± SEM of myocarditic animals, day 21): 0
β1ARAc 201–220: N-terminal acetylated mouse β1-adrenergic receptor peptide 201–220 (Ac-AESDEARRCYNDPKCCDFVT; cysteine pairing not given here; UniProt P34971 201-220, looked up, fragment) |  |  |  |  |  |  |  |  |  |  |  |  |  |  | IA^k binding (in words) (IA^k; soluble IA^k monomers, reference HEL 46–61, Figure S1B): failed to bind IA^k molecule; T cell responses (in words) [2]: non-T cell activators; Antibody isotypes produced, IgG and IgM (in words) [3]: all IgG isotypes (IgG1, IgG2a, IgG2b, IgG3) including IgM; Antibody response, total Igs (in words) [3]: antibody response; Myocarditis induction (in words) (A/J mice (hearts); acetylated peptide, standard CFA/PT protocol): failed to induce myocarditis
